# Measurements taken from PubChem BioAssay (NCI).
#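 How tested: cells in 96-well plates exposed to compound for 48 hours at five concentrations. At the GI50, growth is halved. TGI is the concentration that stops growth completely.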
# Experiments:
# Experiment in all cases: inhibition of tumour cell growth, NCI panel, 48 h
# CCRF-CEM leukemia = system: CCRF-CEM leukemia
# NCI-H460 lung = system: NCI-H460 lung
# HOP-92 NSCLC = system: HOP-92 NSCLC
# MCF7 breast = system: MCF7 breast
# MDA-MB-435 = system: MDA-MB-435
# HT29 colon = system: HT29 colon
# MOLT-4 leukemia = system: MOLT-4 leukemia
# OVCAR-4 ovarian = system: OVCAR-4 ovarian
# BT-549 breast = system: BT-549 breast
# SR leukemia = system: SR leukemia
# NCI-H522 lung = system: NCI-H522 lung
# OVCAR-8 ovarian = system: OVCAR-8 ovarian
# COLO 205 colon = system: COLO 205 colon
# SW-620 colon = system: SW-620 colon
# K-562 leukemia = system: K-562 leukemia
# RPMI-8226 leukemia = system: RPMI-8226 leukemia
# RXF 393 renal = system: RXF 393 renal
# PC-3 prostate = system: PC-3 prostate
# SF-268 CNS = system: SF-268 CNS
# UO-31 renal = system: UO-31 renal
# HOP-62 NSCLC = system: HOP-62 NSCLC
# LOX IMVI melanoma = system: LOX IMVI melanoma
# HL-60(TB) leukemia = system: HL-60(TB) leukemia
# CAKI-1 renal = system: CAKI-1 renal
# IGROV1 ovarian = system: IGROV1 ovarian
# NCI-H23 lung = system: NCI-H23 lung
# UACC-257 melanoma = system: UACC-257 melanoma
# SF-295 CNS = system: SF-295 CNS
# MDA-MB-231 breast = system: MDA-MB-231 breast
# TK-10 renal = system: TK-10 renal
# SK-OV-3 ovarian = system: SK-OV-3 ovarian
# NCI-H226 lung = system: NCI-H226 lung
# U251 CNS = system: U251 CNS
# SNB-75 CNS = system: SNB-75 CNS
# SN12C renal = system: SN12C renal
# SK-MEL-2 melanoma = system: SK-MEL-2 melanoma
# SF-539 CNS = system: SF-539 CNS
# HCT-116 colon = system: HCT-116 colon
# HCC-2998 colon = system: HCC-2998 colon
# HS 578T breast = system: HS 578T breast
# T-47D breast = system: T-47D breast
# SNB-19 CNS = system: SNB-19 CNS
# DU-145 prostate = system: DU-145 prostate
# MALME-3M melanoma = system: MALME-3M melanoma
# NCI/ADR-RES ovarian = system: NCI/ADR-RES ovarian
# SK-MEL-5 melanoma = system: SK-MEL-5 melanoma
# KM12 colon = system: KM12 colon
# UACC-62 melanoma = system: UACC-62 melanoma
# HCT-15 colon = system: HCT-15 colon
# A549 NSCLC = system: A549 NSCLC
# OVCAR-5 ovarian = system: OVCAR-5 ovarian
# A498 renal = system: A498 renal
# SK-MEL-28 melanoma = system: SK-MEL-28 melanoma
# EKVX NSCLC = system: EKVX NSCLC
# ACHN renal = system: ACHN renal
# M14 melanoma = system: M14 melanoma
# 786-0 renal = system: 786-0 renal
# OVCAR-3 ovarian = system: OVCAR-3 ovarian
structure (smiles),measurement,setting,value
Cc1cc(I)cc(CN(C)CCN2CCOCC2)c1O,GI50,CCRF-CEM leukemia,870 nM
same,GI50,NCI-H460 lung,43.4 µM
same,TGI,NCI-H460 lung,> 100 µM
same,GI50,HOP-92 NSCLC,38 µM
same,TGI,HOP-92 NSCLC,> 100 µM
same,GI50,MCF7 breast,44.1 µM
same,TGI,MCF7 breast,> 100 µM
same,GI50,MDA-MB-435,67.3 µM
same,TGI,MDA-MB-435,> 100 µM
same,GI50,HT29 colon,33.4 µM
same,TGI,HT29 colon,> 100 µM
same,GI50,MOLT-4 leukemia,35.7 µM
same,TGI,MOLT-4 leukemia,> 100 µM
same,GI50,OVCAR-4 ovarian,53.2 µM
same,TGI,OVCAR-4 ovarian,> 100 µM
same,GI50,BT-549 breast,43.7 µM
same,TGI,BT-549 breast,> 100 µM
same,GI50,SR leukemia,12.5 µM
same,TGI,SR leukemia,97.7 µM
same,GI50,NCI-H522 lung,79 µM
same,TGI,NCI-H522 lung,> 100 µM
same,GI50,OVCAR-8 ovarian,75.1 µM
same,TGI,OVCAR-8 ovarian,> 100 µM
same,GI50,COLO 205 colon,71.6 µM
same,TGI,COLO 205 colon,> 100 µM
same,GI50,SW-620 colon,55.2 µM
same,TGI,SW-620 colon,> 100 µM
same,GI50,K-562 leukemia,28.4 µM
same,TGI,K-562 leukemia,> 100 µM
same,GI50,RPMI-8226 leukemia,30.2 µM
same,TGI,RPMI-8226 leukemia,> 100 µM
same,GI50,RXF 393 renal,> 88 µM
same,TGI,RXF 393 renal,> 100 µM
same,GI50,PC-3 prostate,34.9 µM
same,TGI,PC-3 prostate,> 100 µM
same,GI50,SF-268 CNS,59.5 µM
same,TGI,SF-268 CNS,> 100 µM
same,GI50,UO-31 renal,45.2 µM
same,TGI,UO-31 renal,> 100 µM
same,GI50,HOP-62 NSCLC,64.7 µM
same,TGI,HOP-62 NSCLC,> 100 µM
same,GI50,LOX IMVI melanoma,65 µM
same,TGI,LOX IMVI melanoma,> 100 µM
same,GI50,HL-60(TB) leukemia,25.8 µM
same,TGI,HL-60(TB) leukemia,66.6 µM
same,GI50,CAKI-1 renal,> 61.4 µM
same,TGI,CAKI-1 renal,> 100 µM
same,GI50,IGROV1 ovarian,37.2 µM
same,TGI,IGROV1 ovarian,> 100 µM
same,GI50,NCI-H23 lung,62.7 µM
same,TGI,NCI-H23 lung,> 100 µM
same,GI50,UACC-257 melanoma,99.5 µM
same,TGI,UACC-257 melanoma,> 100 µM
same,GI50,SF-295 CNS,29.8 µM
same,TGI,SF-295 CNS,> 82.3 µM
same,GI50,MDA-MB-231 breast,97.9 µM
same,TGI,MDA-MB-231 breast,> 100 µM
same,GI50,TK-10 renal,> 76.8 µM
same,TGI,TK-10 renal,> 100 µM
same,GI50,SK-OV-3 ovarian,> 100 µM
same,TGI,SK-OV-3 ovarian,> 100 µM
same,GI50,NCI-H226 lung,> 76.9 µM
same,TGI,NCI-H226 lung,> 100 µM
same,GI50,U251 CNS,49.7 µM
same,TGI,U251 CNS,> 100 µM
same,GI50,SNB-75 CNS,53.5 µM
same,TGI,SNB-75 CNS,> 100 µM
same,GI50,SN12C renal,> 68 µM
same,TGI,SN12C renal,> 100 µM
same,GI50,SK-MEL-2 melanoma,> 100 µM
same,TGI,SK-MEL-2 melanoma,> 100 µM
same,GI50,SF-539 CNS,> 100 µM
same,TGI,SF-539 CNS,> 100 µM
same,GI50,HCT-116 colon,30.4 µM
same,TGI,HCT-116 colon,> 100 µM
same,GI50,HCC-2998 colon,> 80.8 µM
same,TGI,HCC-2998 colon,> 100 µM
same,GI50,HS 578T breast,23.4 µM
same,TGI,HS 578T breast,> 72.5 µM
same,GI50,T-47D breast,27.5 µM
same,TGI,T-47D breast,> 100 µM
same,GI50,SNB-19 CNS,> 87.1 µM
same,TGI,SNB-19 CNS,> 100 µM
same,GI50,DU-145 prostate,61 µM
same,TGI,DU-145 prostate,> 100 µM
same,GI50,MALME-3M melanoma,> 78.8 µM
same,TGI,MALME-3M melanoma,> 100 µM
same,GI50,NCI/ADR-RES ovarian,59.8 µM
same,TGI,NCI/ADR-RES ovarian,> 100 µM
same,GI50,SK-MEL-5 melanoma,35.3 µM
same,TGI,SK-MEL-5 melanoma,> 85.6 µM
same,GI50,KM12 colon,44.5 µM
same,TGI,KM12 colon,> 100 µM
same,GI50,UACC-62 melanoma,> 66.1 µM
same,TGI,UACC-62 melanoma,> 100 µM
same,GI50,HCT-15 colon,38.8 µM
same,TGI,HCT-15 colon,> 100 µM
same,GI50,A549 NSCLC,54.6 µM
same,TGI,A549 NSCLC,> 100 µM
same,GI50,OVCAR-5 ovarian,> 100 µM
same,TGI,OVCAR-5 ovarian,> 100 µM
same,GI50,A498 renal,43.3 µM
same,TGI,A498 renal,> 96.3 µM
same,GI50,SK-MEL-28 melanoma,> 78.1 µM
same,TGI,SK-MEL-28 melanoma,> 100 µM
same,GI50,EKVX NSCLC,47.1 µM
same,TGI,EKVX NSCLC,> 100 µM
same,GI50,ACHN renal,60.2 µM
same,TGI,ACHN renal,> 100 µM
same,GI50,M14 melanoma,79.3 µM
same,TGI,M14 melanoma,> 100 µM
same,GI50,786-0 renal,> 100 µM
same,TGI,786-0 renal,> 100 µM
same,GI50,OVCAR-3 ovarian,49.9 µM
same,TGI,OVCAR-3 ovarian,> 100 µM
